Measurements from patent US8299237B2, “Nucleic acid sequences comprising NF-κB binding site within O(6)-methylguanine-DNA-methyltransferase (MGMT) promoter region and uses thereof for the treatment of cancer and immune-related disorders” (Hadasit Medical Research Services & Development Ltd., priority 2007, dated 2012).

Legend:
Format in all cases: cell-based, human
[1] = test system: MGMT-kB1-Luc reporter construct induced by NF-κB/p65; experiment: Luciferase reporter assay, MGMT-kB1-Luc co-transfected with NF-κB/p65; details: for effect on luciferase activity driven by MGMT-kB1 reporter (in words): HEK293T co-transfected with MGMT-kB1 reporter and NF-κB/p65
Experimental: (§1) Transient transfections were performed in 6-well plates, using the FuGene6 transfection reagent (Roche Diagnostics GmbH, Mannheim, Germany), according to the manufacturer's instructions. U87MG, T98G, and A172 cells were transfected with pNF-κB-Luc reporter Vector (Clontech, Palo Alto, Calif.), while RG2 and U87MG were transfected with MGMT-Luc [construct p-954/+24 mL [Biswas T. et al. Oncogene 18:525-32 (1999)] kindly provided by Sankar Mitra] (1 μg/well). CMVβ-galactosidase expression vector (CMVβgal-Clonthech) was included (0.1 μg/well) in each transfection to normalize transfection efficiency. HEK293 cells were transfected with CMVβgal alone or along with one or more of the following plasmids: CMVp65, CMVΔNIκB, CMVp50, CMVcJun. CMVp65 and CMVΔNIκB plasmids were kindly provided by Prof. Yinon. Ben-Neriah (The Hebrew University, Jerusalem, Israel), CMVp50 and CMVcJun were kindly provided by Dr. Danielle Melloul (Hadassah Hebrew University Medical Center, Jerusalem, Israel).
At 24 hrs following transfection, the cells were lysed for 15 min on ice with 200 μl of luciferase lysis buffer (Promega, Madison, Wis.). Luciferase assays were carried out using a Promega assay kit and a luminometer (EG&G Berthold, Bad Wildbad, Germany). The activity was normalized to β-galactosidase activity (Promega) and plotted as the mean±s.d. of triplicates from a representative experiment.
For the cloning of the MGMT-luc constructs the reporter vector p-TA-Luc (Clontech, Palo Alto, USA) was used. The plasmid contains TATA box motif upstream to a luciferase reporter gene. A double stranded DNA corresponding to four repeats of each sequence as indicated by FIG. 8A (also denoted by SEQ ID NO. 44, 45, 46 and 47), was synthesis by syntezza LTD and ligated upstream to the TATA box.
To test the activity of these sites, several luciferase reporter genes bearing four copies of either intact or mutant sequence, of each of the two NF-κB sites (NF-κB1 and NF-κB2), were constructed as indicated in Experimental procedures. […] An inhibition of approximately 50% was observed using 100 nM ODN. Negative control using the CMVΔNIκB (ΔN)-Luc construct as well as positive control using the canonical HIV-κB-Luc reporter construct, confirmed validity of the data.
Induction of over expression of NF-κB in HEK 293T cells by transfection of a CMV-NF-κB/p65 generated a 50-fold elevation in luciferase expression driven by the Co-transfected reporter construct MGMT-kB1-Luc. […] Inhibition of approximately 90% was induced by 150 nM LMODN. […] No inhibition was detected when a mutant LMODN was introduced into the cells, indicating the specificity of MGMT-kB1-LMODN (of SEQ ID NO. 40 and 41). […] 3 (HIV-κB-Luc construct).

[2] = test system: canonical NF-κB binding site from HIV (HIV-κB-Luc construct); experiment: Luciferase reporter assay, HIV-κB-Luc construct induced by p65; details: 150 nm LMODN
Experimental: as §1, with “Israel). […]” for “Israel).”
Induction of over expression of NF-κB in HEK 293T cells by transfection of a CMV-NF-κB/p65 generated a 50-fold elevation in luciferase expression driven by the Co-transfected reporter construct MGMT-kB1-Luc. […] No inhibition was detected when a mutant LMODN was introduced into the cells, indicating the specificity of MGMT-kB1-LMODN (of SEQ ID NO. 40 and 41). […]

[3] = test system: T98MG gliomas cell line
Experimental: (§2) T98MG glioma cell line cells were treated with increasing doses of the decoy ODN's of the invention. Double stranded ODNs (30mers), corresponding to MGMT-κB1 binding site (as also denoted by SEQ. ID. NO. 1), and control ODNs were purchased from IDT. Each strand of ODN was thirty-mers and contained six LNA nucleotides. The following ODNs were used: MGMT-kB1forward: 5′---+T+AATGGGG+ACTTTAC GGG+[…]+A+T---3′ (as also denoted by SEQ. ID. NO. 40) with or without the 5′ end labeled with carboxyfluorescein-5-succimidyl ester (FAM). The MGMT-kB1 reverse ODN: 5′---+A+TTCTGTA+[…]+[…]+T+A---3′ as also denoted by SEQ ID NO. 41). Control forward: 5′---+T+AG TGT CG+A CTT CAC TCT+ACT TGA CAG A+A+T---3′ (as also denoted by SEQ ID NO. 42), control reverse: 5′---+A+TT CTG TC+A AGT AGA GTG+AAG TCG ACA C+T+A---3′ as also denoted by SEQ ID NO. 43). It should be noted that (+designated as nucleotide containing an LNA modification).
(§3) The viability of the cells was tested 24-48 hrs later by CellTiter-Blue assay (Promega®). The assay was carried out according to the supplier's instructions. Briefly, the assay is based on the ability of living cells to convert a redox dye (resazurin) into a fluorescent end product (resorufin). Cell viability estimation is done by measuring the fluorescent intensity of resorufin (ex. 560 nm, em. 590 nm) using a fluorescent microplate reader.
The inventors next tested the potential of the decoy LMODN molecules of the invention to sensitize tumor cells to alkylating agents and thereby improve their efficacy as anti-cancerous treatment. Therefore, several human cancer cell lines were treated with alkylating agents with increasing doses of MGMT-kB1-ODN followed by cell viability tests. First, the sensitivity of each cell line to several alkylating agents, mainly temozolomide (TMZ) and BCNU was calibrated. At 24 hrs following sowing, cells were exposed for two hours to increasing concentrations of the alkylating agent and viability of the cells was tested 24-48 hrs later by CellTiter-Blue assay (Promega®). To test the potential of MGMT-kB1-LMODN to sensitize tumor cells to alkylating agents in-vitro, increasing doses of LMODNs MGMT-kB1 forward and reverse as denoted by SEQ ID NO. 40 and 41, respectively), with or without the 5′ end labeled with carboxyfluorescein-5-succimidyl ester (FAM), as well as the control LMODNs (as denoted by SEQ ID NO. 42 and 43), were liposomally introduced (Lipofectamine 2000, Invitrogen) to various tumor cancer cells. Twenty four hours later, cells were treated with the different doses of alkylating agents as calibrated before.
FIG. 9 represents an example of T98MG gliomas cell line sensitized to alkylating agents in response to treatment with the LMODN's of the invention. […]

[4] = test system: T98MG gliomas cell line; details: corresponding concentrations, 48 hours
Experimental: as §2
as §3, with “reader. […]” for “reader.”

| Substance | inhibition of luciferase activity ([1]; 150 nM LMODN, liposomal, HEK 293T, MGMT-kB1-Luc + NFκB/p65 (FIG. 8)) | effect on luciferase activity driven by MGMT-kB1 reporter (in words) [1] | inhibitory activity relative to NF-κB super repressor ΔNI-κB ([1]; LMODN at 150 nM) | inhibition of p65-induced luciferase expression [2] [%] | toxicity to cells, viability of cells treated only with the LMODN [3] | live cells ([3]; 2.5 mM TMZ with 2 nm LMODN) [%] | additive effect with TMZ (in words) ([3]; 2.5 mM TMZ with mutant LMODN (FIG. 9)) | effect on cell survival (in words) [4] |
| --- | --- | --- | --- | --- | --- | --- | --- | --- |
| MGMT-kB1-LMODN: double stranded 30-mer LNA modified decoy ODN of MGMT-κB1 site; forward SEQ ID NO. 40, reverse SEQ ID NO. 41 (sense TAATGGGGACTTTACGGGACTTTACAGAAT; antisense ATTCTGTAAAGTCCCGTAAAGTCCCCATTA; LNA modified, positions not given here; listed as Homo sapiens) [double stranded 30-mer LNA modified decoy ODN of MGMT-κB1 site; 41] | approximately 90% | inhibited the luciferase activity in a dose-dependent manner | two fold greater | 57 | not toxic to the cells | 22 | – | – |
| mMGMT-kB1-LMODN: mutant control LNA modified ODN; control forward SEQ ID NO. 42, control reverse SEQ ID NO. 43 (sense TAGTGTCGACTTCACTCTACTTGACAGAAT; antisense ATTCTGTCAAGTAGAGTGAAGTCGACACTA; LNA modified, positions not given here; listed as Homo sapiens) [mutant control LNA modified ODN; 43] | – | No inhibition | – | – | – | – | no any additive effect | no reduction in cell survival |
